Literature values in patent publication US20120251462A1, “Agent For Smoker Dehabituation” (Cognis IP Management GmbH, priority 2011, published 2012).

Test system: nACh receptors
Details: exceeds affinity of nicotine

SMILES: Clc1ccc(C2CC3CCC2N3)cn1 (stereo not shown) [Epibatidin]
- affinity for nACh receptors relative to nicotine: 120 fold
